Broadly, the solubility (kinetic) is solubility judged after dilution from a stock solution rather than from solid.

≈ marks a conversion by molar mass, not a printed value.

The source of these data is PubChem BioAssay AID1996.

For the data set the following is noted: buffer; pH 7.4; 200.0 µM.
`Cc1ccc2cc(C)c(SCC(=O)NCC3CCCO3)nc2c1` (stereo unspecified) registered a kinetic solubility of 48.2 µg/mL (≈ 146 µM).

As for `O=C(C1CCCN(S(=O)(=O)c2ccc(Cl)cc2)C1)N1CCCC1` (stereo unspecified), the solubility (kinetic) was 48.7 µg/mL (≈ 136 µM).

`COC(=O)/C(C#N)=C\c1c(OC)[nH]c2ccccc12` had a solubility (kinetic) of 1.1 µg/mL (≈ 4.29 µM).

Regarding `CCN(Cc1nc2ccccc2n1C)c1ccccc1`, the solubility (kinetic) turned out to be 30.7 µg/mL (≈ 116 µM).

The molecule `FC(F)(F)c1ccccc1NC1=NCCCS1` registered a solubility (kinetic) of more than 39 µg/mL.

In turn, `COc1cc([N+](=O)[O-])ccc1NC(=S)NC(=O)CC(C)(C)C` returned a kinetic solubility of 0.3 µg/mL (≈ 0.922 µM).

Take `CCCC(=O)Nc1ccc(-c2nc3ncccc3o2)cc1`: the solubility (kinetic) was determined as 2.1 µg/mL (≈ 7.46 µM).

As to `COc1ccccc1CNC(=O)c1cc(C(C)=O)c[nH]1`, the solubility (kinetic) turned out to be 25.1 µg/mL (≈ 92.2 µM).

On to `Cc1nc(NS(=O)(=O)c2cccc([N+](=O)[O-])c2)sc1C(C)(C)C`, for which the solubility (kinetic) came to 5.4 µg/mL (≈ 15.2 µM).

Regarding `O=[N+]([O-])c1ccccc1OCCCOc1cccc2cccnc12`, the solubility (kinetic) was 18.2 µg/mL (≈ 56.1 µM).

`COC(=O)c1sc(-c2ccccc2)cc1NC(C)=O` showed a kinetic solubility of 1.7 µg/mL (≈ 6.17 µM).

On to `COc1ccc(C(=O)NCCc2ccccc2)cc1OC`, for which the solubility (kinetic) turned out to be 40.1 µg/mL (≈ 141 µM). Compared with the last molecule, the solubility kinetic is about 24-fold higher.

`N/C(=N\OC(=O)c1ccc([N+](=O)[O-])cc1)c1ccc(Br)cc1` came in with a solubility (kinetic) of less than 0.3 µg/mL.

Take `O=C(NCc1ccccc1Cl)c1ccc2c(c1)OCO2`: the solubility (kinetic) is more than 43.5 µg/mL.

In turn, `Cc1ccc2nc(Cl)c(C#N)cc2c1` registered a kinetic solubility of 2.2 µg/mL (≈ 10.9 µM).

Molecule `O=C(COc1ccc([N+](=O)[O-])cc1)NCCc1nc2ccccc2[nH]1` yielded a kinetic solubility of 8.5 µg/mL (≈ 25 µM).

Take `CC1=C(C(=O)OC2CCCCC2)C(c2ccccc2)NC(=O)N1` (stereo unspecified): the kinetic solubility is 11.3 µg/mL (≈ 35.9 µM).

Molecule `O=C(CN1CCCC1)Nc1ccccc1C(=O)c1ccccc1` displayed a kinetic solubility of 44 µg/mL (≈ 143 µM).

Turning to `O=c1c2c([N+](=O)[O-])cc([N+](=O)[O-])cc2sn1Cc1ccccc1`, the kinetic solubility was found to be 17.2 µg/mL (≈ 51.9 µM).

On to `Cl.Clc1ccc2[nH]c3c(c2c1)CCNC3`, for which the kinetic solubility amounted to 32.4 µg/mL.

`CCOC(=O)CCNCc1ccc(OC)c(OC)c1.Cl`: the solubility (kinetic) was more than 45.6 µg/mL.

For the molecule `O=C(COC(=O)/C=C/c1ccc(F)cc1)NC1CC1`, the kinetic solubility turned out to be 28.8 µg/mL (≈ 109 µM).

With `O=C(COC(=O)c1c(Cl)cccc1Cl)NC1CCCCC1`, the solubility (kinetic) is more than 49.5 µg/mL.

Molecule `COc1ccc(CC(=O)O/N=C(\N)c2ccccc2)cc1OC` displayed a solubility (kinetic) of 37.5 µg/mL (≈ 119 µM).

In turn, `CCC1(C)CC(C(N)=S)CCO1` (stereo unspecified) showed a solubility (kinetic) of 17.1 µg/mL (≈ 91.3 µM).

On to `COc1ccc(C(=O)N2CCC(C(=O)Nc3ccc(C)cc3)CC2)cc1`, for which the kinetic solubility was more than 52.9 µg/mL.

In turn, `CC1SC(C)C(=O)N(CC(=O)Nc2ccc([N+](=O)[O-])cc2)C1=O` (stereo unspecified) came in with a solubility (kinetic) of 45.7 µg/mL (≈ 135 µM).

`COc1ccc(C(=O)NCc2ccc3c(c2)CCO3)cc1` came in with a solubility (kinetic) of 32.5 µg/mL (≈ 115 µM).

As to `NC(=O)c1ccc(NC(=O)COC(=O)C2COc3ccccc3O2)cc1` (stereo unspecified), the kinetic solubility is more than 53.5 µg/mL.

For the molecule `CC1CCCC(NC(=S)NC(=O)c2ccco2)C1C` (stereo unspecified), the kinetic solubility was determined as 5.4 µg/mL (≈ 19.3 µM).

Consider `CCOC(=O)C1(CC2CC2)CCN(C(=O)c2ocnc2C)CC1`, for which the solubility (kinetic) is more than 48.1 µg/mL.

`COc1ccc(N2CCN(Cc3nc4ccccc4[nH]3)CC2)cc1` showed a kinetic solubility of more than 48.4 µg/mL.

In turn, `COc1cccc(/C=C2\NC(=O)NC2=O)c1O` yielded a solubility (kinetic) of 32.6 µg/mL (≈ 139 µM).

For the molecule `COc1ccccc1NC(=O)c1ccc2nsnc2c1`, the solubility (kinetic) was found to be 39.6 µg/mL (≈ 139 µM).

`Cc1ccc(NC(=O)C2CCCN(c3ncccn3)C2)cc1C` (stereo unspecified) yielded a solubility (kinetic) of 2.1 µg/mL (≈ 6.77 µM).

Turning to `Cc1ccc(-c2cn(-c3ccccc3F)c(=S)[nH]2)cc1`, the solubility (kinetic) was found to be 1.1 µg/mL (≈ 3.87 µM).

On to `COc1ccc(C(CNC(=O)c2cccc(S(=O)(=O)N3CCc4ccccc43)c2)N(C)C)cc1` (stereo unspecified), for which the solubility (kinetic) is 39.3 µg/mL (≈ 81.9 µM).

`Cc1noc(C)c1-c1nc(CS(=O)(=O)c2ccccc2)no1` yielded a kinetic solubility of 8 µg/mL (≈ 25.1 µM).

In turn, `COc1ccc(C(=O)Nc2ccccc2C(=O)Nc2cccnc2)cc1` gave a solubility (kinetic) of 8.8 µg/mL (≈ 25.3 µM).

In the case of `CCOc1ccccc1NC(=O)NC(C)c1ccc2c(c1)OCO2` (stereo unspecified), the kinetic solubility is 3.4 µg/mL (≈ 10.4 µM). This solubility kinetic is about 2.6-fold lower than that of the molecule before.

Turning to `O=C(Nc1cccc([N+](=O)[O-])c1)C1C2CC/C=C\CCC21` (stereo unspecified), the kinetic solubility came out at 0.8 µg/mL (≈ 2.79 µM). Compared with the last molecule, the solubility kinetic is about 4.2-fold lower.

The molecule `CCOC(=O)Cn1cnc2scc(-c3ccc(C)cc3)c2c1=O` had a kinetic solubility of 38.2 µg/mL (≈ 116 µM).

As for `COc1ccc(S(=O)(=O)NC(C)C(=O)NC2CC2)cc1C` (stereo unspecified), the kinetic solubility was more than 46.9 µg/mL.

Turning to `O=C(O)CCC(=O)N1CCc2c([nH]c3ccccc23)C1C(F)(F)F` (stereo unspecified), the solubility (kinetic) was more than 51 µg/mL.

The molecule `O=C(O)c1cc(-c2ccccc2Cl)n(-c2ccc(F)cc2)n1` registered a kinetic solubility of more than 47.5 µg/mL.

`CCCCN1C(=O)C2(OCCCO2)c2cccc(C)c21` registered a solubility (kinetic) of 25.1 µg/mL (≈ 91.2 µM).

`O=C(OCc1cccc(C(F)(F)F)c1)c1ccc[nH]c1=O` yielded a solubility (kinetic) of more than 44.6 µg/mL.

The molecule `COc1ccc(S(=O)(=O)N2CCOCC2)cc1NC(=O)CSc1nnc(C2CC2)n1C` yielded a solubility (kinetic) of more than 70.1 µg/mL.

On to `Cc1ccccc1C(=O)NC(C)C1CC2CCC1C2` (stereo unspecified), for which the solubility (kinetic) worked out at 28.5 µg/mL (≈ 111 µM).

As to `CN(C(=O)COC(=O)c1ccc(S(=O)(=O)N2CCOCC2)cc1)c1ccccc1`, the solubility (kinetic) was determined as 15.8 µg/mL (≈ 37.8 µM).

The molecule `COC(=O)c1cc(Nc2cc(C)c3c(O)cccc3n2)cc(C(=O)OC)c1` yielded a kinetic solubility of less than 0.4 µg/mL.
